In patent publication US10611750B2, “Tetrahydroquinoline compositions as bet bromodomain inhibitors” (FORMA Therapeutics, Inc., priority 2013, dated 2020):

Key:
[1] = molecular target: T1, BRD4 Bromodomain 1 (BRD4 BD1) (Homo sapiens, UniProt O60885); assay: AlphaScreen binding assay, BRD4 BD1; settings: His-tagged BRD4 BD1 50 nM, biotinylated H4 (1-21) K5/8/12/16 tetra-acetylated peptide 50 nM, compounds listed under IC50 range headings
T1 construct: 44-168 and BRD4 BD2
In short: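 An AlphaScreen competition format was used with His-BRD4 BD1 or BD2 and biotin-H4 K5/8/12/16-acetyl peptide, each at matched final levels of 50 nM (BD1) or 100 nM (BD2). Incubation in HEPES/NaCl buffer with 0.1% BSA and 0.01% Triton X-100 ran ≥1 h before IC50 determination.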

[2] = test system: acute myelocytic leukemia (AML) cell line MV4-11; assay: Oncology cell growth assay (3-day proliferation, CellTiter-Glo); type: cell-based; settings: Homo sapiens, MV4-11, 72 h, MV4-11 cells, 3000 cells/well, compounds listed under IC50 range headings, read-out: MV411 IC50 (gIC50, inhibition of proliferation)
In short: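 A 3-day proliferation test used MV4-11 cells seeded at 3000 per well with eight compound concentrations (10 μM top, 3-fold dilution) at 37° C in 5% CO2. CellTiter-Glo luminescence defined viable cell signal. A four-parameter logistic curve against DMSO and background wells gave the gIC50.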

IC50 [1]	IC50 [2]	Compound
1000 to 10000 nM	< 500 nM	C[C@H]1CCc2c(ccc(-c3cnoc3)c2Oc2ccccc2)N1C(=O)C1CC1 [I-231, (S)-cyclopropyl(6-(isoxazol-4-yl)-2-methyl-5-phenoxy-3,4-dihydroquinolin-1 (2H)-yl)methanone]
100 to 1000 nM	< 500 nM	COC(=O)N1c2ccc(-c3cn(C)nn3)c(Oc3ccccc3)c2CC[C@@H]1C [I-232, (S)-methyl 2-methyl-6-(1-methyl-1H-1,2,3-triazol-4-yl)-5-phenoxy-3,4-dihydroquinoline-1(2H)-carboxylate]
100 to 1000 nM	< 500 nM	CC(=O)N1c2ccc(-c3cn(C)nn3)c(Oc3ccccc3)c2CC[C@@H]1C [I-233, (S)-1-(2-methyl-6-(1-methyl-1H-1,2,3-triazol-4-yl)-5-phenoxy-3,4-dihydroquinolin-1(2H)-yl)ethanone]
1000 to 10000 nM	< 500 nM	COc1cccc(Oc2c(-c3cn(C)nn3)ccc3c2CC[C@H](C)N3C(=O)C2CC2)c1 [I-234, (S)-cyclopropyl(5-(3-methoxyphenoxy)-2-methyl-6-(1-methyl-1H-1,2,3-triazol-4-yl)-3,4-dihydroquinolin-1 (2H)-yl)methanone]
1000 to 10000 nM	< 500 nM	C[C@H]1CCc2c(ccc(-c3cn(C)nn3)c2Oc2cccc(F)c2)N1C(=O)C1CC1 [I-235, (S)-cyclopropyl(5-(3-fluorophenoxy)-2-methyl-6-(1-methyl-1H-1,2,3-triazol-4-yl)-3,4-dihydroquinolin-1 (2H)-yl)methanone]
100 to 1000 nM	< 500 nM	C[C@H]1CCc2c(ccc(-c3cn(C)nn3)c2Oc2ccc(F)cc2)N1C(=O)C1CC1 [I-236, (S)-cyclopropyl(5-(4-fluorophenoxy)-2-methyl-6-(1-methyl-1H-1,2,3-triazol-4-yl)-3,4-dihydroquinolin-1 (2H)-yl)methanone]
1000 to 10000 nM	< 500 nM	C[C@H]1CCc2c(Oc3ccccc3)c(-c3cn[nH]c3)cc(F)c2N1C(=O)C1CC1 [I-238, (S)-cyclopropyl(8-fluoro-2-methyl-5-phenoxy-6-(1H-pyrazol-4-yl)-3,4-dihydroquinolin-1(2H)-yl)methanone]
1000 to 10000 nM	< 500 nM	COC(=O)N1c2c(F)cc(-c3cnn(C4CC4)c3)c(Oc3ccccc3)c2CC[C@@H]1C [I-239, (S)-methyl 6-(1-cyclopropyl-1H-pyrazol-4-yl)-8-fluoro-2-methyl-5-phenoxy-3,4-dihydroquinoline-1(2H)-carboxylate]
100 to 1000 nM	< 500 nM	COC(=O)N1c2c(F)cc(-c3cn[nH]c3)c(Oc3ccccc3)c2CC[C@@H]1C [I-240, (S)-methyl 8-fluoro-2-methyl-5-phenoxy-6-(1H-pyrazol-4-yl)-3,4-dihydroquinoline-1(2H)-carboxylate]
100 to 1000 nM	< 500 nM	CC(=O)N1c2c(F)cc(-c3cnn(C4CC4)c3)c(Oc3ccccc3)c2CC[C@@H]1C [I-241, (S)-1-(6-(1-cyclopropyl-1H-pyrazol-4-yl)-8-fluoro-2-methyl-5-phenoxy-3,4-dihydroquinolin-1(2H)-yl)ethanone]
100 to 1000 nM	< 500 nM	CC(=O)N1c2c(F)cc(-c3cn[nH]c3)c(Oc3ccccc3)c2CC[C@@H]1C [I-242, (S)-1-(8-fluoro-2-methyl-5-phenoxy-6-(1H-pyrazol-4-yl)-3,4-dihydroquinolin-1(2H)-yl)ethanone]
100 to 1000 nM	< 500 nM	C[C@H]1CCc2c(ccc(C3CC3)c2Oc2ccccc2)N1C(=O)C1CC1 [I-243, (S)-cyclopropyl(6-cyclopropyl-2-methyl-5-phenoxy-3,4-dihydroquinolin-1 (2H)-yl) methanone]
≥ 10000 nM	> 1000 nM	COC(=O)N1c2ccc(C3CC3)c(Oc3ccccc3)c2CC[C@@H]1C [I-244, (S)-methyl 6-cyclopropyl-2-methyl-5-phenoxy-3,4-dihydroquinoline-1(2H)-carboxylate]
100 to 1000 nM	< 500 nM	COC(=O)N1c2ccc(-c3cnn(C4CC5CN(C)CC5C4)c3)c(Oc3ccc(F)cc3)c2CC[C@@H]1C (stereo partly drawn) [I-250, (2S)-methyl 5-(4-fluorophenoxy)-2-methyl-6-(1-(2-methyl-octahydrocyclopenta[c]pyrrol-5-yl)-1H-pyrazol-4-yl)-3,4-dihydroquinoline-1(2H)-carboxylate]
100 to 1000 nM	< 500 nM	C[C@H]1CCc2c(ccc(-c3cnn(C4CCNCC4)c3)c2Oc2ccccc2F)N1C(=O)C1CC1 [I-260, (S)-cyclopropyl(5-(2-fluorophenoxy)-2-methyl-6-(1-(piperidin-4-yl)-1H-pyrazol-4-yl)-3,4-dihydroquinolin-1(2H)-yl)methanone]
100 to 1000 nM	< 500 nM	COC(=O)N1c2ccc(-c3cnn(C4CNC4)c3)c(Oc3ccccc3F)c2CC[C@@H]1C [I-261, (S)-methyl 6-(1-(azetidin-3-yl)-1H-pyrazol-4-yl)-5-(2-fluorophenoxy)-2-methyl-3,4-dihydroquinoline-1(2H)-carboxylate]
100 to 1000 nM	< 500 nM	C[C@H]1CCc2c(ccc(-c3cnn(C4CCNCC4)c3)c2Oc2ccc(F)cc2F)N1C(=O)C1CC1 [I-264, (S)-cyclopropyl (5-(2,4-difluorophenoxy)-2-methyl-6-(1-(piperidin-4-yl)-1H-pyrazol-4-yl)-3,4-dihydroquinolin-1 (2H)-yl)methanone]
100 to 1000 nM	< 500 nM	C[C@H]1CCc2c(ccc(-c3cnn(C4CNC4)c3)c2Oc2ccc(F)cc2F)N1C(=O)C1CC1 [I-265, (S)-(6-(1-(azetidin-3-yl)-1H-pyrazol-4-yl)-5-(2,4-difluorophenoxy)-2-methyl-3,4-dihydroquinolin-1(2H)-yl)(cyclopropyl)methanone]
100 to 1000 nM	< 500 nM	COC(=O)N1c2ccc(-c3cnn(C4CNC4)c3)c(Oc3ccc(F)cc3F)c2CC[C@@H]1C [I-266, (S)-methyl 6-(1-(azetidin-3-yl)-1H-pyrazol-4-yl)-5-(2,4-difluorophenoxy)-2-methyl-3,4-dihydroquinoline-1(2H)-carboxylate]
100 to 1000 nM	< 500 nM	C[C@H]1CCc2c(ccc(-c3cnn(C4CCNCC4)c3)c2Oc2cccc(F)c2F)N1C(=O)C1CC1 [I-267, (S)-cyclopropyl(5-(2,3-difluorophenoxy)-2-methyl-6-(1-(piperidin-4-yl)-1H-pyrazol-4-yl)-3,4-dihydroquinolin-1(2H)-yl)methanone]
100 to 1000 nM	< 500 nM	COC(=O)N1c2ccc(-c3cnn(C4CCNCC4)c3)c(Oc3cccc(F)c3F)c2CC[C@@H]1C [I-269, (S)-methyl 5-(2,3-difluorophenoxy)-2-methyl-6-(1-(piperidin-4-yl)-1H-pyrazol-4-yl)-3,4-dihydroquinoline-1(2H)-carboxylate]
100 to 1000 nM	< 500 nM	COC(=O)N1c2ccc(-c3cnn(C4CNC4)c3)c(Oc3cc(F)ccc3F)c2CC[C@@H]1C [I-271, (S)-methyl 6-(1-(azetidin-3-yl)-1H-pyrazol-4-yl)-5-(2,5-difluorophenoxy)-2-methyl-3,4-dihydroquinoline-1(2H)-carboxylate]
100 to 1000 nM	< 500 nM	C[C@H]1CCc2c(ccc(-c3cnn(C4CNC4)c3)c2Oc2cc(F)ccc2F)N1C(=O)C1CC1 [I-272, (S)-(6-(1-(azetidin-3-yl)-1H-pyrazol-4-yl)-5-(2,5-difluorophenoxy)-2-methyl-3,4-dihydroquinolin-1(2H)-yl)(cyclopropyl)methanone]
100 to 1000 nM	< 500 nM	COC(=O)N1c2ccc(-c3cnn(C4CCNCC4)c3)c(Oc3cc(F)ccc3F)c2CC[C@@H]1C [I-273, (S)-methyl 5-(2,5-difluorophenoxy)-2-methyl-6-(1-(piperidin-4-yl)-1H-pyrazol-4-yl)-3,4-dihydroquinoline-1(2H)-carboxylate]
100 to 1000 nM	< 500 nM	C[C@H]1CCc2c(ccc(-c3cnn(C4CCNCC4)c3)c2Oc2cc(F)ccc2F)N1C(=O)C1CC1 [I-274, (S)-cyclopropyl(5-(2,5-difluorophenoxy)-2-methyl-6-(1-(piperidin-4-yl)-1H-pyrazol-4-yl)-3,4-dihydroquinolin-1 (2H)-yl)methanone]
100 to 1000 nM	< 500 nM	CC(=O)N1c2ccc(-c3cnn(C4CCNCC4)c3)c(Oc3ccc(F)c(F)c3)c2CC[C@@H]1C [I-275, (S)-1-(5-(3,4-difluorophenoxy)-2-methyl-6-(1-(piperidin-4-yl)-1H-pyrazol-4-yl)-3,4-dihydroquinolin-1 (2H)-yl)ethanone]
100 to 1000 nM	< 500 nM	CC(=O)N1c2ccc(-c3cnn(C4CCNCC4)c3)c(Oc3cc(F)ccc3F)c2CC[C@@H]1C [I-276, (S)-1-(5-(2,5-difluorophenoxy)-2-methyl-6-(1-(piperidin-4-yl)-1H-pyrazol-4-yl)-3,4-dihydroquinolin-1(2H)-yl)ethanone]

Compound	IC50 [1]	IC50 [2]
COC(=O)N1c2ccc(-c3cnn(C4CC5CN(C)CC5C4)c3)c(OC3CCC3)c2CC[C@@H]1C (stereo partly drawn) [I-248, (2S)-methyl 5-cyclobutoxy-2-methyl-6-(1-(2-methyl-octahydrocyclopenta[c]pyrrol-5-yl)-1H-pyrazol-4-yl)-3,4-dihydroquinoline-1(2H)-carboxylate]	100 to 1000 nM	< 500 nM
C[C@H]1CCc2c(ccc(-c3cnn4c3NCC4)c2OC2CCC2)N1C(=O)C1CC1 [I-278, ((2S)-5-cyclobutoxy-6-(2,3-dihydro-1H-pyrazolo[1,5-a]imidazol-7-yl)-2-methyl-3,4-dihydroquinolin-1(2H)-yl)(cyclopropyl)methanone]	100 to 1000 nM	< 500 nM
